Source: patent US20090208408A1, “USE OF VCAM-1 LIGANDS FOR DETECTING AND/OR TREATING CARDIOVASCULAR DISEASES” (UNIVERSITE JOSEPH FOURIER, priority 2004, published 2009)
Read-outs that look alike come from different tables or passages of the source. One block for each compound: values may come before it. Where a SMILES comes first, the peptide text is derived from it. [ ]: non-standard residue; d: D form. Tyr(3-I) = N[C@@H](Cc1ccc(O)c(I)c1)C(=O)O

Tests used:
[1] = Biodistribution 180 minutes after the injection; assay type: in vivo; conditions: rabbit, iv, total radioactivity
Protocol: (§1) Samples of blood were taken 1, 2, 5, 10, 15, 20, 25 and 30 minutes after injection of the tracers. The animals were euthanased 30 minutes (examples 2, 3 and 4) or 180 minutes (examples 5 and 6) after injection of the labelled VCAM-1 ligands. Samples of the principal organs were taken. These samples, as well as the blood samples taken, were counted for the radioactivity which they contain. The dorsal aorta, the aortic arch and the ventral aorta were also sampled and immediately placed in 10% formalin. A portion of ventral aorta was placed for 24 hours in 3.7% formaldehyde for subsequent inclusion in paraffin and verification by immunohistology of the presence of VCAM-1.
(§2) The tracers ^123I-B2702.84-75 and ^99mTc-B2702.84-75 were evaluated according to the same methodology as was used for Examples 3 and 4, except that the animals were euthanased 180 minutes (30 minutes previously) after the injection of the tracers.
The binding values are expressed as a percentage of the injected dose per gram of organ (% ID/g).

[2] = tested on: atheromatous plaques; assay: Aortic binding, ex vivo autoradiography, euthanasia after 180 minutes; assay type: in vivo, rabbit; conditions: 180 minutes after injection
Protocol: as §1
The dorsal and ventral aortas were placed in contact with a high-resolution phosphorus screen (Fujifilm 08SR2025) in darkness for 18 hours. The screen was then scanned (phosphoimager Fujifilm BAS 5000) and the images of the distribution of the labelled VCAM-1 ligands on the aortas of healthy or hyperlipidemic animals were quantified with the aid of the Scion Image Beta software available on the National Institute of Health internet site. […]
The tracers ^123I-B2702.84-75 and ^99mTc-B2702.84-75 were evaluated according to the same methodology as was used for Examples 3 and 4, except that the animals were euthanased 180 minutes (30 minutes previously) after the injection of the tracers. […]

[3] = Blood kinetics up to 180 minutes after injection; assay type: in vivo, rabbit; conditions: 180 minutes after the injection
Protocol: as §2
The blood samples for measuring the circulatory tracer activity were taken 1, 2, 5, 10, 20, 25, 30, 60, 120 and 180 minutes after the injection. 180 minutes after the injection, the circulatory activity of ^123I-B2702.84-75 and ^99mTc-B2702.84-75 represents respectively 30% and 15% of the initial activity. It will be recalled that the circulatory activity of ^125I-B2702.84-75 represented approximately 40% of the initial activity 30 minutes after the injection in the experiments described in Example 3.

[4] = target: T1, VCAM-1 (Homo sapiens, UniProt P19320); conditions: as shown by Ling et al. (2000); cited from earlier work
T1 sequence (P19320 25-739): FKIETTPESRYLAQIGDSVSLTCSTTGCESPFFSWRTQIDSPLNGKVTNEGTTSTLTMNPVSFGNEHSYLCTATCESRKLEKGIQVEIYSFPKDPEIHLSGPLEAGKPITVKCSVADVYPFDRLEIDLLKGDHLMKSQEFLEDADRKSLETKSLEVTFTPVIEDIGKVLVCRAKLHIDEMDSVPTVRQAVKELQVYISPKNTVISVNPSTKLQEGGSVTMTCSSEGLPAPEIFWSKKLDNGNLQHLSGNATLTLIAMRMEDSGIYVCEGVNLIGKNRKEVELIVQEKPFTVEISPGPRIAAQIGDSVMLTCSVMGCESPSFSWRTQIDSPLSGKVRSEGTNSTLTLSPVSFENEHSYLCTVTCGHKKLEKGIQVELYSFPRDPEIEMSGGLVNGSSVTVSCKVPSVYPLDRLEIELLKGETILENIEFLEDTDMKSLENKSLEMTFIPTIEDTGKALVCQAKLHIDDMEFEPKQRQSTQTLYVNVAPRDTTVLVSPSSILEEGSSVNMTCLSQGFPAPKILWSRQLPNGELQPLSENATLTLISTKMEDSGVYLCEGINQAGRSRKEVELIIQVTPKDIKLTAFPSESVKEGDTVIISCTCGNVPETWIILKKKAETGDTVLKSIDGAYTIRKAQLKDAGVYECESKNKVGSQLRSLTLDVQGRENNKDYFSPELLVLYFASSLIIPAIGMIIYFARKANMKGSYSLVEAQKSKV

tissue uptake at 3 h ([1]; aorta, Control rabbits (n = 3), read-out: Biodistribution, Aorta): 0.011 ± 0.004 %ID/g | tissue uptake at 3 h ([1]; aorta, WHHL rabbits (n = 3), read-out: Biodistribution, Aorta): 0.034 ± 0.012 %ID/g | tissue uptake at 3 h ([1]; blood, Control rabbits (n = 3), read-out: Biodistribution, Blood): 0.19 ± 0.038 %ID/g | tissue uptake at 3 h ([1]; blood, WHHL rabbits (n = 3), read-out: Biodistribution, Blood): 0.161 ± 0.048 %ID/g | tissue uptake at 3 h ([1]; fat, Control rabbits (n = 3), read-out: Biodistribution, Fat): 0.011 ± 0.001 %ID/g | tissue uptake at 3 h ([1]; fat, WHHL rabbits (n = 3), read-out: Biodistribution, Fat): 0.015 ± 0.006 %ID/g | tissue uptake at 3 h ([1]; heart, Control rabbits (n = 3), read-out: Biodistribution, Heart): 0.088 ± 0.017 %ID/g | tissue uptake at 3 h ([1]; heart, WHHL rabbits (n = 3), read-out: Biodistribution, Heart): 0.088 ± 0.031 %ID/g | tissue uptake at 3 h ([1]; kidney, Control rabbits (n = 3), read-out: Biodistribution, Kidney): 0.307 ± 0.052 %ID/g | tissue uptake at 3 h ([1]; kidney, WHHL rabbits (n = 3), read-out: Biodistribution, Kidney): 0.49 ± 0.184 %ID/g | tissue uptake at 3 h ([1]; liver, Control rabbits (n = 3), read-out: Biodistribution, Liver): 0.086 ± 0.025 %ID/g | tissue uptake at 3 h ([1]; liver, WHHL rabbits (n = 3), read-out: Biodistribution, Liver): 0.096 ± 0.029 %ID/g | tissue uptake at 3 h ([1]; lung, Control rabbits (n = 3), read-out: Biodistribution, Lung): 0.138 ± 0.028 %ID/g | tissue uptake at 3 h ([1]; lung, WHHL rabbits (n = 3), read-out: Biodistribution, Lung): 0.163 ± 0.044 %ID/g | tissue uptake at 3 h ([1]; muscle, Control rabbits (n = 3), read-out: Biodistribution, Muscle): 0.028 ± 0.003 %ID/g | tissue uptake at 3 h ([1]; muscle, WHHL rabbits (n = 3), read-out: Biodistribution, Muscle): 0.026 ± 0.009 %ID/g | tissue uptake at 3 h ([1]; spleen, Control rabbits (n = 3), read-out: Biodistribution, Spleen): 0.076 ± 0.015 %ID/g | tissue uptake at 3 h ([1]; spleen, WHHL rabbits (n = 3), read-out: Biodistribution, Spleen): 0.089 ± 0.029 %ID/g | tissue uptake at 3 h ([1]; stomach, Control rabbits (n = 3), read-out: Biodistribution, Stomach): 0.095 ± 0.025 %ID/g | tissue uptake at 3 h ([1]; stomach, WHHL rabbits (n = 3), read-out: Biodistribution, Stomach): 0.114 ± 0.04 %ID/g | binding ratio atheromatous plaque / normal aortic zone ([2]; WHHL animals): 4.0 | circulatory activity, of the initial activity [3]: 30%
Compound: CC[C@H](C)[C@H](NC(=O)[C@H](C)NC(=O)[C@H](CC(C)C)NC(=O)[C@H](CCCNC(=N)N)NC(=O)[C@@H](N)Cc1ccc(O)c(I)c1)C(=O)N[C@@H](CCCNC(=N)N)C(=O)N[C@@H](CC(C)C)C(=O)N[C@@H](CC(N)=O)C(=O)N[C@@H](CCC(=O)O)C(=O)N[C@@H](CCCNC(=N)N)C(=O)O [^123I-B2702.84-75] (H-[Tyr(3-I)]RLAIRLNER-OH; N-terminus and C-terminus assumed)
binding on atheromatous plaques of WHHL animals relative to aortas of control animals [2]: 17.0 times

Compound: B2702.84-75/75-84: peptide of sequence YRLAIRLNERRENLRIALRY (SEQ ID no 2), inverse dimer of residues 84-75/75-84 of HLA-B2702 (listed as Homo sapiens)
binding to VCAM-1 [4]: bind specifically to VCAM-1
